# According to patent US8846694B2, “Pyrrolidone derivatives for use as MetAP-2 inhibitors” (Merck Patent GmbH, priority 2008, dated 2014):
# Columns and labels:
# [1] = molecular target: MetAP-2 (Homo sapiens, UniProt P50579); assay: MetAP-2 activity measurement (coupled enzymatic reactions, substrate Met-Arg-Ser, photometric at 450 nm); assay type: biochemical; details: read-out: IC50 enzyme (Inhibition of MetAP-2)
# In short: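 Human MetAP-2 cleaves Met-Arg-Ser; the freed methionine is oxidized by L-amino acid oxidase, and the resulting H2O2 drives peroxidase oxidation of dianisidine, read continuously at 450 nm. Activity is taken as the slope in the visually linear region.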
# Chain of MetAP-2 (P50579 whole entry, species assumed): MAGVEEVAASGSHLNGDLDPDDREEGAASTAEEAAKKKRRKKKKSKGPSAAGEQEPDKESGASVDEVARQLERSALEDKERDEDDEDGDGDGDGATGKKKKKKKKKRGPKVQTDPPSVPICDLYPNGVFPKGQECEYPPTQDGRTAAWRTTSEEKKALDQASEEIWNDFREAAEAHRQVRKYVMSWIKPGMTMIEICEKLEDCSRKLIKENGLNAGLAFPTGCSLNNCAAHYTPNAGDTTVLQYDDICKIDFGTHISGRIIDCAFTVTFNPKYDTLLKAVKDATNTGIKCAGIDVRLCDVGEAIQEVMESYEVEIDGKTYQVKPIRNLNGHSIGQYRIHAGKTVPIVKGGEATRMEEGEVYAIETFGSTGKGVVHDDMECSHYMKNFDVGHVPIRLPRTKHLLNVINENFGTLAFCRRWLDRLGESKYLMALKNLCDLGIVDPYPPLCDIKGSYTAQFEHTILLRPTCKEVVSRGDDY
structure (smiles),measurement,setting,value
"F[C@H]1C[C@H](COc2ccccc2Cl)N(c2ncnc3[nH]cnc23)C1 [A7, 6-[(2R,4S)-2-(2-chlorophenoxymethyl)-4-fluoropyrrolidin-1-yl]-9H-purine]",melting point,,143 to 144 °C
same,IC50,[1],1 to 10 µM
